From patent publication US12492200B2, “NLRP3 modulators” (INNATE TUMOR IMMUNITY, INC., priority 2020, dated 2025)

How the values were obtained:
Type in all cases: cell-based
human TLR8 = biological target: T1, human TLR8 (Homo sapiens, UniProt Q9NR97); test: In vitro human TLR8 reporter assay (HEK-Blue cells, NF-kB/AP1-inducible SEAP); details: TLR8 agonist EC50, HEK-Blue TLR8 NF-kB-SEAP reporter cells
T1 construct: host or cells: HEK-Blue cells (human HEK) co-expressing TLR8 and an NF-kB/AP1-inducible SEAP reporter
T1 sequence (Q9NR97 27-1041): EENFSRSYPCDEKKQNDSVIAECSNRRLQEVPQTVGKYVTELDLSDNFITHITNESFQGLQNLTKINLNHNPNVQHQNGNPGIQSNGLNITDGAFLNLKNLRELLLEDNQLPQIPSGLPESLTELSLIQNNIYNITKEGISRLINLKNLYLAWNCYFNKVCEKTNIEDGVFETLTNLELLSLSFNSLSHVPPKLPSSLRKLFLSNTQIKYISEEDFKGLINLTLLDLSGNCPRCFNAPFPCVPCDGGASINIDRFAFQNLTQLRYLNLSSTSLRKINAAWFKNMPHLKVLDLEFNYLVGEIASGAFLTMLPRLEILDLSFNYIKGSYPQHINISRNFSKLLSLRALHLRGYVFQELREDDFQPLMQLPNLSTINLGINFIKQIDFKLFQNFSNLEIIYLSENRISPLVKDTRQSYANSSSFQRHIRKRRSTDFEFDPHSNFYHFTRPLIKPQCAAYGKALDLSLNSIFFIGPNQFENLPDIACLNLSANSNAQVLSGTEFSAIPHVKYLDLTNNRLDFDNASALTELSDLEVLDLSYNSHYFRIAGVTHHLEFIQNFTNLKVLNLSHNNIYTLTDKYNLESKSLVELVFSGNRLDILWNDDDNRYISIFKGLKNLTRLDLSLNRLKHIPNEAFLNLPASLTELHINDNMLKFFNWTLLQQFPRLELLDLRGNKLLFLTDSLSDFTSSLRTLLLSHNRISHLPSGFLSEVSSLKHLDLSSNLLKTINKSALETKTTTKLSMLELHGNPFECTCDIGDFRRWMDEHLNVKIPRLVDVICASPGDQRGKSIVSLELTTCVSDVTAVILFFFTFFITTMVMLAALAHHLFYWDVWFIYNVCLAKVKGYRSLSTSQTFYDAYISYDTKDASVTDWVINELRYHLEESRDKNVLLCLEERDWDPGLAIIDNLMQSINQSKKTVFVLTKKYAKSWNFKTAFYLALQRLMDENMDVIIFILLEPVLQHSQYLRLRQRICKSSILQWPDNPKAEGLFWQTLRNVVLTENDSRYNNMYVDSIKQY
Experimental: (§1) Logarithmically-growing human HEK-Blue cells co-expressing a TLR7 or TLR8 gene and a NF-kB/AP1-inducible SEAP (secreted embryonic alkaline phosphatase; Invivogen, San Diego, CA) reporter gene are added to individual wells of a 384-well plate (15,000 cells per 20 μL per well) and maintained for 24 h at 37° C., 5% CO2. Test compounds or DMSO are distributed to separate wells the next day using acoustic liquid handling technology (100 nL per well) and cells are subsequently incubated for 18 h at 37° C., 5% CO2. Cellular SEAP production is measured using an Envision plate reader instrument thirty minutes after adding freshly-made Quanti-Blue reagent (prepared by following manufacturer instructions; Invivogen, San Diego, CA) to the HEK-Blue TLR Nf-kB-SEAP cell reactions. All EC50 values (half-maximal effective concentration) are determined using proprietary data analysis software. Normalized EC50 value=absolute value determined by setting 100% Ymax using a reference standard RLU (relative light unit) values from cells treated with 50 μM of the reference standard.

NLRP3 = biological target: T2, NLRP3 (Homo sapiens, UniProt Q96P20); test: Measurement of IL-1β production (NLRP3 hIL1β EC50), PMA-differentiated THP-1 cells; details: human IL-1β production; assayed using one or more of the described procedures
T2 construct: host or cells: PMA-differentiated THP-1 cells
Experimental: THP-1 cells were purchased from the American Type Culture Collection and sub-cultured according to instructions from the supplier. Prior to experiments, cells were cultured in RPMI 1640 containing 10% heat inactivated FBS, penicillin (100 units/ml) and streptomycin (100 μg/ml), and maintained in log phase prior to experimental setup. Prior to the experiment THIP-1 were treated with PMA (Phorbol 12-myristate 13-acetate) (10 μg/ml) for 24 hours. The day of the experiment the media was removed and attaching cells were treated with trypsin for 2 minutes, cells were then collected, washed with PBS (phosphate buffer saline), spin down, resuspended in 2% heat inactivated FBS with RPMI at a concentration of 1×10^6 cells/ml, and 100 μl was plated in a 96 well plate. Compounds were dissolved in dimethyl sulfoxide (DMSO) and added to the culture medium to achieve desired concentration (e.g. 100, 30, 10, 3, 1, 0.3 or 0.1 μM). Cells were incubated with compounds for 4 hours. Cell free supernatant was collected and the production of IL-1β was evaluated by ELISA. A vehicle only control was run concurrently with each experiment. Final DMSO concentration was 1%.
THP-1 cells were purchased from the American Type Culture Collection and sub-cultured according to instructions from the supplier. Prior to experiments, cells were cultured in RPMI 1640 containing 10% heat inactivated FBS, penicillin (100 units/ml), streptomycin (100 μg/ml), HEPES (10 mM) and sodium pyruvate (1 mM) and maintained in log phase prior to experimental setup. Prior to the experiment, THP-1 cells were treated with PMA (Phorbol 12-myristate 13-acetate) (20 μg/ml) overnight. The day of the experiment, the media was removed and attached cells were treated with trypsin for 2 minutes, cells were then collected, washed with PBS (phosphate buffer saline), pelleted by centrifugation and resuspended in 2% heat inactivated FBS with RPMI at a concentration of 50,000 cells/well in a 384 well plate. Cell free supernatant was collected and the production of IL-1β was evaluated by ELISA. Compounds were dissolved in dimethyl sulfoxide (DMSO) and added to the culture medium to achieve desired concentration (e.g. 100, 30, 10, 3, 1, 0.3 or 0.1 μM). Cells were incubated with compounds for 2 hours. A vehicle only control was run concurrently with each experiment. Final DMSO concentration was 1%.
Serial dilutions of compounds in DMSO were added to low volume 384 well plates at 100 nl/well using an ECHO 550 acoustic dispenser (Labcyte) to achieve final starting concentration of 10 μM in assay.
THP-1 cells in RPMI (Gibco, 11875) media with 10% FBS at a density of 1×10^6 cell/ml in a T175 flask were treated with a final concentration of phorbol 12-myristate 13-acetate (PMA) (Sigma,P1585) of 50 ng/ml overnight at 37° C. at 5% CO2 for differentiation. Cells were harvested the next day after rinsing well with dPBS using 0.5% trypsin. A cell solution was prepared of 1×10^6 cells/ml for 50,000 cells in 50 μl/well in RPMI media with 2% FBS. Cells were plated using a multichannel pipette onto the compound dilutions in Greiner, 384 well, black clear bottom tissue culture treated plates (781090). The plates were incubated in 37° C. incubator at 5% CO2 for 2 hours.
After the 2 hour incubation, the cell plates were spun in the centrifuge for 5 minutes at 1200 rpm. Using the Felix (CyBio), 8 μl of the supernatant was transferred to 384 well, low volume, white proxy plates. (Perkin Elmer, 6008230). A human IL1beta hTRF kit was used to analyze the supernatant (CISBIO, 62HIL1BPEG). The kit instructions were followed for preparing the IL1Beta standard curve and then the antibodies from the kit were diluted 1:40 rather than 1:20 as kit instructed. Once combined, the antibodies were added across the plates, 5 μl/well. The plates were sealed and incubated at 4° C. overnight. The plates were then read on the Perkin Elmer EnVision at 665/615 nm using the hTRF laser.

human TLR7 = biological target: T3, human TLR7 (Homo sapiens, UniProt Q9NYK1); test: In vitro human TLR7 reporter assay (HEK-Blue cells, NF-kB/AP1-inducible SEAP); details: TLR7 agonist EC50, HEK-Blue TLR7 NF-kB-SEAP reporter cells
T3 construct: host or cells: HEK-Blue cells (human HEK) co-expressing TLR7 and an NF-kB/AP1-inducible SEAP reporter
T3 sequence (Q9NYK1 27-1049): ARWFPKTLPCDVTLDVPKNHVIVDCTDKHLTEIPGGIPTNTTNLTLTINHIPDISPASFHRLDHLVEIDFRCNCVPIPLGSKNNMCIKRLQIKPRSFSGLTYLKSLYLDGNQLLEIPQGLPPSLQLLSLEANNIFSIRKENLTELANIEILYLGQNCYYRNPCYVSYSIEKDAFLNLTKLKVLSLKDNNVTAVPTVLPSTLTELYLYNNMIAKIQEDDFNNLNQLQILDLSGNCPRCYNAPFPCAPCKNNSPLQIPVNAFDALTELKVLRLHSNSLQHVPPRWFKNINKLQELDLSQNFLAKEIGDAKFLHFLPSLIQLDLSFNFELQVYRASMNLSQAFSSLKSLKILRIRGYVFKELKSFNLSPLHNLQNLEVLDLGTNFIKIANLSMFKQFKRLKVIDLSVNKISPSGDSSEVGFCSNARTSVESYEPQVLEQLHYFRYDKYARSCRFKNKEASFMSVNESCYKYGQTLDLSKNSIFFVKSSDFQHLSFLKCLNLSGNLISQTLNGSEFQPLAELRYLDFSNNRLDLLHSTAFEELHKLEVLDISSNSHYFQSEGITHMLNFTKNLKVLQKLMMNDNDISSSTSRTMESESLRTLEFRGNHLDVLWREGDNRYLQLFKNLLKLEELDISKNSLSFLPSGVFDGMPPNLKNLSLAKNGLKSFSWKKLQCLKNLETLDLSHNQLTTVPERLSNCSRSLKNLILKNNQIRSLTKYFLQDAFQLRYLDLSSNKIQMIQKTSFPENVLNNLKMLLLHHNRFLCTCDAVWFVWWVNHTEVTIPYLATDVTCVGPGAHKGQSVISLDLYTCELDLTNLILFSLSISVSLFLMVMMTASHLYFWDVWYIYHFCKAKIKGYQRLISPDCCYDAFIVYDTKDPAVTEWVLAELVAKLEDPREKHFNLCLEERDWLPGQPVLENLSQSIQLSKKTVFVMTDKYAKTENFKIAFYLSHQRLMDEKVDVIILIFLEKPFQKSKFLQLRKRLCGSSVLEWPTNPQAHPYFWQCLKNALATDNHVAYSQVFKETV
Experimental: as §1

T2 sequence (Q96P20 whole entry): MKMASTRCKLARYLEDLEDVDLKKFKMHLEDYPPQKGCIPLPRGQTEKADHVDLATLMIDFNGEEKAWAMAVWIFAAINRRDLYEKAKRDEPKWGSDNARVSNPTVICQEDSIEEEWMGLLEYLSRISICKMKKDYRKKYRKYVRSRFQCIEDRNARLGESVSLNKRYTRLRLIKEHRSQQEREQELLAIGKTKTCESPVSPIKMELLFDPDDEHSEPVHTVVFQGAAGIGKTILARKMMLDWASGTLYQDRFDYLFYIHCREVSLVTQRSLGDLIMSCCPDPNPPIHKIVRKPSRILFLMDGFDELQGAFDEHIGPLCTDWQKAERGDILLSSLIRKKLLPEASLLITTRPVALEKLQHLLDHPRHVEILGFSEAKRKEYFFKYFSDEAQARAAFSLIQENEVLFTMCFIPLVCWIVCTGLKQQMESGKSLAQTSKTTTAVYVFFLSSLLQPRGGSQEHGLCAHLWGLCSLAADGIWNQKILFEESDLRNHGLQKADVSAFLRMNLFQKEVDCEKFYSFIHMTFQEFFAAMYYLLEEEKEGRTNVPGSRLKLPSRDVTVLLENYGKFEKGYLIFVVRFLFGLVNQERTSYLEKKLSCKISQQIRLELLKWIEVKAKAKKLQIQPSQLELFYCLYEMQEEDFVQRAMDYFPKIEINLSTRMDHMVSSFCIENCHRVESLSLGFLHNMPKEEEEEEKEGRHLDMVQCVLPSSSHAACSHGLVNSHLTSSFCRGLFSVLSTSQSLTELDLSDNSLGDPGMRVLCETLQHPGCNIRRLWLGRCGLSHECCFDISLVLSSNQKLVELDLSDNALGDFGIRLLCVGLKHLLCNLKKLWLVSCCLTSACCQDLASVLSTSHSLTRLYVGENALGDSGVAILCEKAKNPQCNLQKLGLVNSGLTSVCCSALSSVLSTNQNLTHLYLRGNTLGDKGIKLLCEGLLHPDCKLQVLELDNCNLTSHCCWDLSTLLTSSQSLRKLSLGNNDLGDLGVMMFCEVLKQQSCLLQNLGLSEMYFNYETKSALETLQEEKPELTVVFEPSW

SMILES	EC50 (human TLR8) [µM]	EC50 (NLRP3) [µM]	EC50 (human TLR7) [µM]
CC(C)CC(=O)N1CCC[C@H]1Cc1nc2c(N)nc3cc(-c4cc[nH]n4)ccc3c2[nH]1 [Example 87]	77	4.3	–
Nc1nc2cc(-c3cc[nH]n3)ccc2c2[nH]c([C@H]3CCCN(C(=O)Cc4ccccc4)C3)nc12 [Example 40]	–	3.8	58
CC(C)(C)C(=O)N1CCC[C@H](c2nc3c(N)nc4cc(-c5cc[nH]n5)ccc4c3[nH]2)C1 [Example 28]	47	1.2	–
CC(C)(C)OC(=O)N1CCC[C@H](c2nc3c(N)nc4cc(-c5cc[nH]n5)ccc4c3[nH]2)C1 [Example 1, tert-Butyl (S)-3-(4-amino-7-(1H-pyrazol-3-yl)-1H-imidazo[4,5-c]quinolin-2-yl)piperidine-1-carboxylate]	10	0.33	–

The remaining molecules from weak to strong by EC50 (NLRP3), led by results:

EC50 (human TLR8) [µM]	EC50 (NLRP3) [µM]	EC50 (human TLR7) [µM]	SMILES
–	3.9	57	N#CC1(C(=O)N2CCC[C@@H](c3nc4c(N)nc5cc(-c6cc[nH]n6)ccc5c4[nH]3)C2)CCCC1 [Example 70]
–	2.5	35	N#CC1(C(=O)N2CCC[C@H](c3nc4c(N)nc5cc(-c6cc[nH]n6)ccc5c4[nH]3)C2)CCCC1 [Example 39]
17	2	–	N#CC1(C(=O)N2CCC[C@H](c3nc4c(N)nc5cc(-c6cc[nH]n6)ccc5c4[nH]3)C2)CCCCC1 [Example 38]
–	0.98	0.62	N#CC1(C(=O)N2CCC[C@H](c3nc4c(N)nc5cc(-c6cc[nH]n6)ccc5c4[nH]3)C2)CC1 [Example 3, (S)-1-(3-(4-Amino-7-(1H-pyrazol-3-yl)-1H-imidazo[4,5-c]quinolin-2-yl)piperidine-1-carbonyl)cyclopropane-1-carbonitrile]
10	0.36	–	CC(C)(C)OC(=O)N1CCC[C@@H](c2nc3c(N)nc4cc(-c5cc[nH]n5)ccc4c3[nH]2)C1 [Example 6, tert-Butyl (R)-3-(4-amino-7-(1H-pyrazol-3-yl)-1H-imidazo[4,5-c]quinolin-2-yl)piperidine-1-carboxylate]
